Measured values reported in BindingDB's records for doi:10.1021/jm00185a027 (1981).

Target: Aldo-keto reductase family 1 member B1 (Oryctolagus cuniculus) (UniProt P15122)
Experiment: Binding affinity towards rabbit aldose reductase

- Ki: 400 nM
Structure (SMILES): CN(C)S(=O)(=O)c1ccc2oc3ccc(C(=O)O)cc3c(=O)c2c1 [7-Dimethylsulfamoyl-9-oxo-9H-xanthene-2-carboxylic acid]
